Measured values: BindingDB's records for doi:10.1074/jbc.M110.164293 (Manchester Interdisciplinary Biocentre, 2010)

Legend:
Test in all cases: Binding Assay
[1] = target: T1, Steroid C26-monooxygenase (Mycobacterium tuberculosis (strain CDC 1551 / Oshkosh), UniProt P9WPL4)
T1 sequence (P9WPL4 whole entry): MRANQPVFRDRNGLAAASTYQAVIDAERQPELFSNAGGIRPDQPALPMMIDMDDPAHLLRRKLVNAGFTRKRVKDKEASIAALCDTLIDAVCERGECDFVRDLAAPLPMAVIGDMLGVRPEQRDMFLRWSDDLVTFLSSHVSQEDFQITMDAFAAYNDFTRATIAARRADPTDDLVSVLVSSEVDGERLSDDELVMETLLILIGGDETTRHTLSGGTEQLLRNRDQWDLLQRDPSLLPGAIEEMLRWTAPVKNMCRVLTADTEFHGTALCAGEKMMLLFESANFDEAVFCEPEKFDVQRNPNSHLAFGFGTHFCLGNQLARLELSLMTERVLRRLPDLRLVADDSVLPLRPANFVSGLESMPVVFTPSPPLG
Description: (§1) Substrate and ligand binding assay using UV- visible absorbance analysis of CYP142 was done on a Cary UV-50 UV-visible scanning spectrophotometer (Varian, UK) using a 1-cm path length quartz cuvette, recording spectra between 250 and 800 nm.

[2] = target: T2, Steroid C26-monooxygenase (Mycobacterium tuberculosis (strain CDC 1551 / Oshkosh), UniProt P9WPP0)
T2 sequence (P9WPP0 whole entry): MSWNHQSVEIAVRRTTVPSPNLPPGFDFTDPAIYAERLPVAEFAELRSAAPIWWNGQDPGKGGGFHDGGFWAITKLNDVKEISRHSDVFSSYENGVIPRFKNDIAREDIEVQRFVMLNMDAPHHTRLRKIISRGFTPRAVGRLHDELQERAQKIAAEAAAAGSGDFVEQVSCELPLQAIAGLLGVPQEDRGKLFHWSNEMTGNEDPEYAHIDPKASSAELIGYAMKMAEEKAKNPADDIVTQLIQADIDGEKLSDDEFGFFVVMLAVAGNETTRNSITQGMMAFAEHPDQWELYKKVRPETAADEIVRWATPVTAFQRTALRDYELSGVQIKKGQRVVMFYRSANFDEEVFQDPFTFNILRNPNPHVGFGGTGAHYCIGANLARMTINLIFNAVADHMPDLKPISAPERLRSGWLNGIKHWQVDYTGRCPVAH
Description: as §1

[3] = target: T3, Cytochrome P450 144 (Mycobacterium tuberculosis (strain CDC 1551 / Oshkosh), UniProt P9WPL0)
T3 sequence (P9WPL0 whole entry): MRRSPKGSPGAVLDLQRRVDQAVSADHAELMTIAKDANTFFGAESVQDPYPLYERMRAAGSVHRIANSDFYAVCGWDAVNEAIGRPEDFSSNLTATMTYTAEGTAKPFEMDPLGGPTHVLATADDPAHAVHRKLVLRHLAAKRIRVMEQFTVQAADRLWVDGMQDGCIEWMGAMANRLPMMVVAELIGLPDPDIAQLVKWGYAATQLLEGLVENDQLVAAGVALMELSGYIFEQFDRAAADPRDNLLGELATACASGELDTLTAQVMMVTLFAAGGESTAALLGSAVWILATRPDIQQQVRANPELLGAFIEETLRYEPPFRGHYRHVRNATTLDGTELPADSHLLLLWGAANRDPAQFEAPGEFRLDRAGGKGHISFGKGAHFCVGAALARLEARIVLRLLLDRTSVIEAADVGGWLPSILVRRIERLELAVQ
Description: as §1

| SMILES | Kd [1] [µM] | Kd [2] [µM] | Kd [3] [µM] |
| --- | --- | --- | --- |
| c1ccc(-c2c[nH]cn2)cc1 | 12 | 216 | 280 |
| Clc1ccccc1C(c1ccccc1)(c1ccccc1)n1ccnc1 | 3.8 | 5.3 | 0.37 |
| CC(C)CCC[C@@H](C)[C@H]1CC[C@H]2[C@@H]3CCC4=CC(=O)CC[C@]4(C)[C@H]3CC[C@]12C [4-Cholesten-3-one] | 0.36 | 1.2 |  |
| CC(=O)N1CCN(c2ccc(OC[C@H]3CO[C@](Cn4ccnc4)(c4ccc(Cl)cc4Cl)O3)cc2)CC1 [24F2-1,25(OH)D3] | 21 | 27.1 | 134 |
| CC(C)CCC[C@@H](C)[C@H]1CC[C@H]2[C@@H]3CC=C4C[C@@H](O)CC[C@]4(C)[C@H]3CC[C@]12C [(1S,2R,5S,10S,11S,14R,15R)-2,15-dimethyl-14-[(2R)-6-methylheptan-2-yl]tetracyclo[8.7.0.0^{2,7}.0^{11,15}]heptadec-7-en-5-ol] | 0.34 | 0.11 |  |
| Clc1ccc(CO[C@@H](Cn2ccnc2)c2ccc(Cl)cc2Cl)c(Cl)c1 [Brentan] | 4 | 4.6 | 0.98 |
| Clc1ccc(COC(Cn2ccnc2)c2ccc(Cl)cc2Cl)cc1 (configuration not stated) [ECONAZOLE] | 4.6 | 11.7 | 0.78 |
| OC(Cn1cncn1)(Cn1cncn1)c1ccc(F)cc1F [Fungata] | 860 | 43.1 |  |
| CCC(C)n1ncn(-c2ccc(N3CCN(c4ccc(OC[C@H]5CO[C@](Cn6cncn6)(c6ccc(Cl)cc6Cl)O5)cc4)CC3)cc2)c1=O (some centres not stated) [Oriconazole] |  | 30.2 |  |
